Activity data for 36 molecules are collected here from ChEMBL document CHEMBL3779873, “Rubrolide analogues and their derived lactams as potential anticancer agents” (Medchemcomm, 2016).

Experiment [1] is described as follows: Cytotoxicity against human HCT116 cells assessed as reduction in cell viability at 25 ug/mL after 72 hrs by MTT assay. The class given is functional, HCT-116. Background: Tetrazolium assays rely on reduction of a dye to a coloured formazan, in cell work by metabolically active cells.
Experiment [2] in a line: Cytotoxicity against human OVCAR8 cells assessed as reduction in cell viability at 25 ug/mL after 72 hrs by MTT assay. The class given is functional, OVCAR-8.
Experiment [3] in a line: Cytotoxicity against human SF295 cells assessed as reduction in cell viability at 25 ug/mL after 72 hrs by MTT assay. Type of experiment: functional, SF-295.

On to `O=C1O/C(=C\c2ccc(F)cc2)C(Cl)=C1Cl`, for which the figures for the Activity in experiment [1], in experiment [2] and in experiment [3] were 97.68%, 98.99% and 68.44%, respectively.

Consider `CC(C)CN1C(=O)C(Cl)=C(Cl)/C1=C\c1ccc(Br)cc1`, for which the figures for the Activity in experiment [1], in experiment [2] and in experiment [3] were 57.48%, 52.94% and 58.59%, respectively.

For the molecule `COc1ccc(C)cc1C1=C(Br)C(=O)O/C1=C\c1ccccc1Cl`, the Activity in experiment [1] is recorded as 35.84%; in experiment [2], 26.18%; in experiment [3], 2.02%.

As for `COc1ccc(C)cc1C1=C(Br)C(=O)N(CC(C)C)/C1=C/c1ccccc1Cl`, the Activity amounted to 19.23% in experiment [1], 34.8% in experiment [2] and 6.91% in experiment [3].

Regarding `COc1ccccc1C1=C(Br)C(=O)N(CC(C)C)/C1=C\c1ccc(C(F)(F)F)cc1`, the Activity is listed as 79.09% in experiment [1], 47.91% in experiment [2] and 51.01% in experiment [3].

For the molecule `O=C1O/C(=C\c2ccc(Cl)cc2)C(Cl)=C1Cl`, the Activity in experiment [1] is listed as 95.81%; in experiment [2] it was 0%; in experiment [3] it was 48.84%.

Turning to `COc1ccc(Cl)cc1-c1c(Cc2ccc(C(F)(F)F)cc2)n[nH]c(=O)c1Br`, the Activity in experiment [1] is 97.73%; in experiment [2], 53.87%; in experiment [3] it was 73.87%.

On to `COc1ccc(Br)cc1C1=C(Br)C(=O)N(CC(C)C)/C1=C/c1ccc(Br)cc1`, for which the Activity in experiment [1] was found to be 97.98%; in experiment [2] it was 90.66%; in experiment [3], 53.77%.

Take `COc1ccc(Br)cc1C1=C(Br)C(=O)O/C1=C\c1ccc(Br)cc1`: the Activity in experiment [1] was determined as 97.53%; in experiment [2], 98.28%; in experiment [3], 75.68%.

As for `CC(C)CN1C(=O)C(Cl)=C(Cl)C1(O)Cc1ccc(Br)cc1` (stereo not drawn), the values for the Activity in experiment [1], in experiment [2] and in experiment [3] were 49.89%, 13.42% and 42.06%, respectively.

For the molecule `COc1ccccc1C1=C(Br)C(=O)N(CC(C)C)/C1=C/c1ccc(C(F)(F)F)cc1`, the Activity in experiment [1] is recorded as 88.8%; in experiment [2], 75.07%; in experiment [3], 84.72%.

For the molecule `COc1ccc(Br)cc1C1=C(Br)C(=O)N(CC(C)C)C1(O)Cc1ccc(Br)cc1` (stereo not drawn), the Activity in experiment [1] came out at 82.39%; in experiment [2] it was 32.1%; in experiment [3], 56.18%.

Take `CCCN1C(=O)C(Cl)=C(Cl)/C1=C\c1ccc(F)cc1`: the Activity is 64.83% in experiment [1], 99.07% in experiment [2] and 97.74% in experiment [3].

Consider `COc1ccc(Cl)cc1-c1c(Cc2cccc([N+](=O)[O-])c2)n[nH]c(=O)c1Br`, for which the Activity in experiment [1] came to 31.84%; in experiment [2], 37.42%; in experiment [3] it was 47.34%.

On to `COc1cccc(CC2(O)C(c3cc(Cl)ccc3OC)=C(Br)C(=O)N2CC(C)C)c1` (stereo not drawn), for which the Activity in experiment [1] was found to be 67.25%; in experiment [2], 27%; in experiment [3], 69.2%.

For `COc1ccc(Br)cc1-c1c(Cc2ccccc2Cl)n[nH]c(=O)c1Br`, the Activity in experiment [1] is recorded as 38.1%; in experiment [2], 27.93%; in experiment [3], 47.29%.

As to `COc1ccc(Br)cc1C1=C(Br)C(=O)N(CC(C)C)/C1=C\c1cccc(Cl)c1`, the figures for the Activity in experiment [1], in experiment [2] and in experiment [3] were 86.98%, 52.15% and 72.36%, respectively.

For `COc1ccc(Cl)cc1C1=C(Br)C(=O)O/C1=C\c1ccc([N+](=O)[O-])cc1`, the Activity came out at 92.2% in experiment [1], 53.71% in experiment [2] and 82.86% in experiment [3].

As to `CCCN1C(=O)C(Cl)=C(Cl)C1(O)Cc1ccc(F)cc1` (stereo not drawn), the Activity in experiment [1] is listed as 25.82%; in experiment [2] it was 9.25%; in experiment [3], 10.95%.

For the molecule `COc1ccc(Cl)cc1C1=C(Br)C(=O)O/C1=C\c1ccc(F)cc1`, the Activity in experiment [1] came out at 55.49%; in experiment [2], 32.6%; in experiment [3], 84.72%.

For the molecule `O=C1O/C(=C\c2ccc3c(c2)OCO3)C(Cl)=C1Cl`, the figures for the Activity in experiment [1], in experiment [2] and in experiment [3] were 53.64%, 94.9% and 87.84%, respectively.

Consider `O=C1O/C(=C\c2ccc(C(F)(F)F)cc2)C(Cl)=C1Cl`, for which the Activity in experiment [1] is 76.92%; in experiment [2] it was 98.2%; in experiment [3], 92.21%.

On to `COc1ccccc1C1=C(Br)C(=O)O/C1=C\c1ccc(C(F)(F)F)cc1`, for which the Activity stood at 84.46% in experiment [1], 98.85% in experiment [2] and 71.31% in experiment [3].

Take `CC(C)CN1C(=O)C(Cl)=C(Cl)/C1=C/c1ccc(Br)cc1`: the Activity in experiment [1] is on record as 97.93%; in experiment [2], 54.45%; in experiment [3], 48.29%.

As for `COc1ccc(Br)cc1-c1c(Cc2ccc(C(F)(F)F)cc2)n[nH]c(=O)c1Br`, the Activity came to 98.03% in experiment [1], 46.18% in experiment [2] and 74.92% in experiment [3].

Take `O=C1O/C(=C\c2cccc(Cl)c2)C(Cl)=C1Cl`: the Activity in experiment [1] was found to be 62.17%; in experiment [2], 99.86%; in experiment [3] it was 86.08%.

On to `COc1ccc(C)cc1C1=C(Br)C(=O)N(CC(C)C)C1(O)Cc1ccccc1Cl` (stereo not drawn), for which the Activity in experiment [1] is recorded as 78.5%; in experiment [2], 44.39%; in experiment [3] it was 63.57%.

As for `COc1ccc(Br)cc1-c1c(Cc2ccc(F)cc2)n[nH]c(=O)c1Br`, the Activity in experiment [1] was 59.8%; in experiment [2] it was 29.08%; in experiment [3], 48.14%.

`COc1cccc(Cc2n[nH]c(=O)c(Br)c2-c2cc(Br)ccc2OC)c1`: the Activity in experiment [1] amounted to 10.78%; in experiment [2], 10.69%; in experiment [3], 30.95%.

As to `COc1ccc(Br)cc1C1=C(Br)C(=O)O/C1=C\c1ccccc1Cl`, the Activity came out at 74.4% in experiment [1], 57.61% in experiment [2] and 49.4% in experiment [3].

On to `COc1ccc(Cl)cc1-c1c(Cc2ccc(F)cc2)n[nH]c(=O)c1Br`, for which the Activity in experiment [1] was 14.71%; in experiment [2], 42.17%; in experiment [3], 18.95%.

For `COc1cccc(/C=C2\C(c3cc(Cl)ccc3OC)=C(Br)C(=O)N2CC(C)C)c1`, the Activity in experiment [1] came to 75.51%; in experiment [2], 55.28%; in experiment [3], 79.36%.

With `COc1cccc(/C=C2\OC(=O)C(Br)=C2c2cc(Cl)ccc2OC)c1`, the figures for the Activity in experiment [1], in experiment [2] and in experiment [3] were 97.09%, 97.92% and 48.09%, respectively.

Turning to `COc1ccc(C)cc1C1=C(Br)C(=O)N(CC(C)C)/C1=C\c1ccccc1Cl`, the values for the Activity in experiment [1], in experiment [2] and in experiment [3] were 77.02%, 20.46% and 61.86%, respectively.

With `COc1ccc(Br)cc1C1=C(Br)C(=O)N(CC(C)C)/C1=C\c1ccc(Br)cc1`, the Activity is listed as 44.22% in experiment [1], 25.49% in experiment [2] and 30.25% in experiment [3].

As to `COc1ccccc1C1=C(Br)C(=O)N(CC(C)C)C1(O)Cc1ccc(C(F)(F)F)cc1` (stereo not drawn), the Activity in experiment [1] is reported as 78.84%; in experiment [2], 21.61%; in experiment [3] it was 67.94%.
